In the supplement of paper PMC10307832:

Experiments:
Assay in all cases: relative viability (nuclei count vs DMSO), 5 days (fraction); higher = more cells survive
[1] = system: EPLC-272H
Summary of the method: (§1)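 For relative viability, nuclei counts in treated wells were divided by those in vehicle wells. Lung cancer cell lines had been pin-tool dosed in 1536-well plates the day after seeding and cultured for 5 days, then fixed and stained in one step (final 0.05% Triton X-100, 1% formaldehyde, 1 ug/ml Hoechst) and imaged at 4×. Doses were one drug alone or a fixed anchor-drug dose plus five library-drug doses (not always all listed) in √10 steps, and values are duplicate-plate medians.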

[2] = system: NCI-H1563
Summary of the method: as §1

[3] = system: EMC-BAC-2
Summary of the method: as §1

[4] = system: NCI-H322M
Summary of the method: as §1

[5] = system: NCI-H2405
Summary of the method: as §1

[6] = system: H3255
Summary of the method: as §1

[7] = system: NCI-H23
Summary of the method: as §1

[8] = system: NCI-H2087
Summary of the method: as §1

[9] = system: NCI-H1395
Summary of the method: as §1

[10] = system: NCI-H520
Summary of the method: as §1

[11] = system: NCI-H1355
Summary of the method: as §1

[12] = system: NCI-H1944
Summary of the method: as §1

## Clc1ccc(Nc2nnc(Cc3ccncc3)c3ccccc23)cc1 [Vatalanib] + COc1cccc2cc(-c3nc([C@H]4CC[C@H](C(=O)O)CC4)n4ncnc(N)c34)[nH]c12 [OSI-027] (partner 0.5 µM)
[1]; first compound 0.04 µM
  relative viability: 0.268
[1]; first compound 0.1265 µM
  relative viability: 0.259
[1]; first compound 0.4 µM
  relative viability: 0.323
[1]; first compound 1.265 µM
  relative viability: 0.301
[1]; first compound 4 µM
  relative viability: 0.303
[2]; first compound 0.04 µM
  relative viability: 0.735
[2]; first compound 0.1265 µM
  relative viability: 0.677
[2]; first compound 0.4 µM
  relative viability: 0.827
[2]; first compound 1.265 µM
  relative viability: 0.698
[2]; first compound 4 µM
  relative viability: 0.738
[3]; first compound 0.04 µM
  relative viability: 0.413
[3]; first compound 0.1265 µM
  relative viability: 0.392
[3]; first compound 0.4 µM
  relative viability: 0.398
[3]; first compound 1.265 µM
  relative viability: 0.335
[3]; first compound 4 µM
  relative viability: 0.4
[4]; first compound 0.04 µM
  relative viability: 0.573
[4]; first compound 0.1265 µM
  relative viability: 0.546
[4]; first compound 0.4 µM
  relative viability: 0.493
[4]; first compound 1.265 µM
  relative viability: 0.52
[4]; first compound 4 µM
  relative viability: 0.481
[5]; first compound 0.04 µM
  relative viability: 0.665
[5]; first compound 0.1265 µM
  relative viability: 0.631
[5]; first compound 1.265 µM
  relative viability: 0.666
[5]; first compound 4 µM
  relative viability: 0.608
[6]; first compound 0.04 µM
  relative viability: 0.566
[6]; first compound 0.1265 µM
  relative viability: 0.529
[6]; first compound 0.4 µM
  relative viability: 0.51
[6]; first compound 1.265 µM
  relative viability: 0.584
[6]; first compound 4 µM
  relative viability: 0.504
[7]; first compound 0.04 µM
  relative viability: 0.634
[7]; first compound 0.1265 µM
  relative viability: 0.613
[7]; first compound 0.4 µM
  relative viability: 0.779
[7]; first compound 1.265 µM
  relative viability: 0.517
[7]; first compound 4 µM
  relative viability: 0.387
[8]; first compound 0.04 µM
  relative viability: 0.673
[8]; first compound 0.1265 µM
  relative viability: 0.468
[8]; first compound 0.4 µM
  relative viability: 0.647
[8]; first compound 1.265 µM
  relative viability: 0.548
[8]; first compound 4 µM
  relative viability: 0.564
[9]; first compound 0.04 µM
  relative viability: 0.632
[9]; first compound 0.1265 µM
  relative viability: 0.634
[9]; first compound 0.4 µM
  relative viability: 0.597
[9]; first compound 1.265 µM
  relative viability: 0.651
[9]; first compound 4 µM
  relative viability: 0.604
[10]; first compound 0.04 µM
  relative viability: 0.25
[10]; first compound 0.1265 µM
  relative viability: 0.23
[10]; first compound 0.4 µM
  relative viability: 0.244
[10]; first compound 1.265 µM
  relative viability: 0.252
[10]; first compound 4 µM
  relative viability: 0.224
[11]; first compound 0.04 µM
  relative viability: 0.427
[11]; first compound 0.1265 µM
  relative viability: 0.431
[11]; first compound 0.4 µM
  relative viability: 0.435
[11]; first compound 1.265 µM
  relative viability: 0.413
[11]; first compound 4 µM
  relative viability: 0.34
[12]; first compound 0.04 µM
  relative viability: 0.42
[12]; first compound 0.1265 µM
  relative viability: 0.421
[12]; first compound 0.4 µM
  relative viability: 0.413
[12]; first compound 1.265 µM
  relative viability: 0.411
[12]; first compound 4 µM
  relative viability: 0.336
